Series [1] relates to MPTP mouse model of Parkinson's disease. Briefly: Grid walking test, intraperitoneal treatment. The class given is in vivo, C57BL/6J mice. The following applies: Day 11, after MPTP administered again; 15 mg/kg (in terms of L-DOPA) intraperitoneal for 11 days. Here is the method:
Male C57BL/6J mice, 15 weeks old, were used (see Chonpathompikunlert, P. (2018). BMC Complementary and Alternative Medicine, 18(103), 1 -12). […] The administration before treatment was to induce PD, and the administration after treatment was to visualize by a behavioral test. […] A grid walk test was performed as a behavioral test according to the above schedule, and the number of times the limbs of the mouse slipped into the opening was counted to test the balance ability.

Series [2] has the same test system. Put plainly: Narrow beam walk test, intraperitoneal treatment. The class given is in vivo, C57BL/6J mice. To be noted: Day 7; 15 mg/kg (in terms of L-DOPA) intraperitoneal; versus MPTP-administered group. An excerpt: Male C57BL/6J mice, 15 weeks old, were used (see Chonpathompikunlert, P. (2018). BMC Complementary and Alternative Medicine, 18(103), 1 -12). […] The administration before treatment was to induce PD, and the administration after treatment was to visualize by a behavioral test. […] In this test, motor ability can be accessed by measuring the time until a mouse passes through a narrow bridge with a width of 1 cm, and the time increases with Parkinson's disease.

A short description of series [3]: Body weight change and health during treatment. The class given is in vivo, C57BL/6J mice. To be noted: 15 mg/kg (in terms of L-DOPA) intraperitoneal for 11 days. Here is the method: Male C57BL/6J mice, 15 weeks old, were used (see Chonpathompikunlert, P. (2018). BMC Complementary and Alternative Medicine, 18(103), 1 -12). A method of intraperitoneally administering 1-methyl-4-phenyl -1,2,3,6-tetrahydropyridine (MPTP) was used, but MPTP was administered before and after treatment with intraperitoneal administration of nanoparticles because of high recovery ability of mice themselves. The administration before treatment was to induce PD, and the administration after treatment was to visualize by a behavioral test.
The mice were randomly divided into the following four groups (n=4). • 1) Saline, for 12 days • 2) MPTP 20 mg/kg, 4 times daily, every 2 hours+saline, for 11 days+MPTP 30 mg/kg, for 3 days • 3) MPTP 20 mg/kg, 4 times daily, every 2 hours+L-DOPA 15 mg/kg, for 11 days+MPTP 30 mg/kg, for 3 days • 4) MPTP 20 mg/kg, 4 times daily, every 2 hours+NPs 15 mg/kg (in terms of L-DOPA), for 11 days+MPTP 30 mg/kg, for 3 days

In series [4] the test system is L-DOPA-induced dyskinesia in MPTP mice. Put plainly: Abnormal involuntary movement scale test (AIMS test). The format is in vivo, C57BL/6J mice. To be noted: Day 17; 25 mg/kg (in terms of L-DOPA) with Benserazide 12 mg/kg for 17 days. As for the experimental part: Male C57BL/6J mice, 15 weeks old, were used (see Chonpathompikunlert, P. (2018). BMC Complementary and Alternative Medicine, 18(103), 1 -12). […] The administration before treatment was to induce PD, and the administration after treatment was to visualize by a behavioral test. […] An abnormal involuntary movement scale test (AIMS test) was performed as a behavioral test according to the above schedule, and the severity of dyskinesia was scored (0: no AIM, 1: AIM in <50%, 2: AIM in >50%, 3: continuous but stopped by stimulation, 4: continuous). Mice with a strong symptom of dyskinesia have a large score.

For series [5] the test system is unchanged. Briefly: Slider test. To be noted: Day 17; 25 mg/kg (in terms of L-DOPA) with Benserazide 12 mg/kg for 17 days. The format is in vivo, C57BL/6J mice. An excerpt: Male C57BL/6J mice, 15 weeks old, were used (see Chonpathompikunlert, P. (2018). BMC Complementary and Alternative Medicine, 18(103), 1 -12). […] The administration before treatment was to induce PD, and the administration after treatment was to visualize by a behavioral test. […] (6) In addition, in a slider test, motor ability can be assessed by measuring the time until each mouse becomes unable to walk on a slope of 26.5 degrees or slides down, and the time is expected to be shortened with Parkinson's disease.

Series [6] has as its system Parkinson's disease mouse models (MPTP). Put plainly: Narrow beam walk test, oral administration. The following applies: oral L-DOPA 15 mg/kg; versus MPTP-administered group. The class given is in vivo, C57BL/6J mice. As for the experimental part:
(§1) Male C57BL/6J mice, 15 weeks old, were used as models as in Test 2. A three-day training period was provided for the models prior to administration to familiarize them with the experimental apparatus. MPTP was administered intraperitoneally at 30 mg/kg every day for the first 5 days (sub-acute). After the administration of MPTP, oral administration of L-DOPA or Nano^DOPA (administered once daily with a tube) was started, and MPTP was administered intraperitoneally to Groups II and III on Day 9, 4 times daily, every 2 hours (acute). MPTP was also administered intraperitoneally in a similar manner to the remaining Group IV on Day 10. The catalepsy test was performed on the same day as the acute administration of MPTP. In addition, the narrow beam walk test (see Test 2 (4)) was performed 2 days after the catalepsy test. All the mice were euthanized the next day of the behavioral test. Each group described above was as follows, and the mice were randomized into the following four groups (n=8). II. MPTP 30 mg/kg, for 5 days (sub-acute)+MPTP 20 mg/kg, 4 times daily, every 2 hours (acute) MPTP 30 mg/kg, for 5 days (sub-acute)+MPTP 20 mg/kg, 4 times daily, every 2 hours (acute)+L-DOPA 15 mg/kg (oral) IV. MPTP 30 mg/kg, for 5 days (sub-acute)+MPTP 20 mg/kg, 4 times daily, every 2 hours (acute)+Nano^DOPA 1.5 mg/kg (given ad libitum) The results are shown in FIG. 21.

Series [7] shares this test system. Briefly: Catalepsy test, oral administration. To be noted: L-DOPA 15 mg/kg, Nano^DOPA 1.5 mg/kg (given ad libitum), same day as acute MPTP. The format is in vivo, C57BL/6J mice. Here is the method:
as §1

In series [8] the test system is heart, lung, liver, spleen, and kidney. Details: species or system mice. To be noted: mouse, in vivo. As for the experimental part:
After the animals were euthanized, major organs were cut out from mouse models of Parkinson's disease (PD) and L-DOPA-induced dyskinesia (LID) and fixed in a 4% paraformaldehyde solution at 4° C. for 72 hours. These tissues were then processed using an automated tissue processor (TP1020, Leica, Germany). The samples embedded in paraffin were subsequently sliced to a thickness of […] with an automatic microtome and stained with hematoxylin and eosin (H&E) as well as Masson trichrome (MT). Histological evaluation was performed by observation under an optical microscope (DP73, Olympus, Japan) and assessment of the potential toxicity of the PEG-b-P(L-DOPA(OAc)2)-Npa (or Nano^DOPA) during the treatment.

For the compound `N[C@@H](Cc1ccc(O)c(O)c1)C(=O)O` [L-DOPA, 3,4-dihydroxy-L-phenylalanine], in series [1], the “number of slipping in grid walking test” value is “no difference was observed in the L-DOPA-administered group compared to the non-treatment group”. In addition, the “time to pass through narrow bridge (narrow beam walk)” value in series [2] is “improvement in therapeutic effect were continuously and significantly observed”. For the same compound, in series [3], the “body weight after MPTP-induced loss” value is reported as “rapidly recovered” and the “health damage during the administration” value is recorded as “no noticeable health damage was observed”. Also, the “severity of dyskinesia (AIMS observation)” value in series [4] was “involuntary movements of the oral cavity and twisting of the body axis characteristic of dyskinesia were observed only in the L-DOPA-administered group”. In addition, the “slider test, walking on a slope of 26.5 degrees” value in series [5] is “sliding down due to involuntary movements of mice was observed only in the L-DOPA-administered group”. The “foot slip errors in narrow beam walk test” value in series [6] is “significantly suppressed”. Besides, the catalepsy test entry in series [7] was “no significant difference”.
For PEG-b-P(L-DOPA(OAc)2), the “organ damage by H&E staining” value in series [8] is “does not damage each organ at all”.

The record behind these values is US20220125752A1, “LEVODOPA DERIVATIVE AND USE THEREOF” (UNIVERSITY OF TSUKUBA, priority 2019, published 2022).
